What all share (assay type): cell-based
One assay has as its system Haemophilus influenzae. Description: MIC in Mueller-Hinton broth, Haemophilus influenzae. Particulars: Mueller-Hinton broth with hemin and NAD, aerobic, 24 hours, 37° C. How it is done:
(§1) The following results were obtained on a standard in-vitro test system. The activity is described in terms of the minimum inhibitory concentration (MIC) determined by the agar-dilution technique with an inoculum size of 10^4 CFU/spot. Typically, compounds are active in the range 0.01 to 256 μg/ml.
(§2) Streptococci and enterococci were tested on agar supplemented with 5% defibrinated horse blood, an inoculum of 10^4 CFU/spot and an incubation temperature of 37° C. in an atmosphere of 5% carbon dioxide for 48 hours—blood is required for the growth of some of the test organisms. Fastidious Gram negative organisms were tested in Mueller-Hinton broth, supplemented with hemin and NAD, grown aerobically for 24 hours at 37° C., and with an innoculum of 5×10^4 CPU/well.

Another assay has as its system Streptococcus pneumoniae. Description: MIC by agar dilution, Streptococcus pneumoniae. Particulars: agar with 5% defibrinated horse blood, 10^4 CFU/spot, 37° C., 5% carbon dioxide, 48 hours. How it is done: as §1, §2
Assay [1] has as its system Staphylococcus aureus MRQR (methicillin resistant and quinolone resistant). The assay is described as follows: MIC by agar dilution, Staphylococcus aureus MRQR. As to conditions: 10^4 CFU/spot, 37° C., 24 hours. How it is done:
as §1
(§3) Staphylococci were tested on agar, using an inoculum of 10^4 CFU/spot and an incubation temperature of 37° C. for 24 hours—standard test conditions for the expression of methicillin resistance.
Background: In agar dilution, organisms are placed on agar that contains the substance at set levels.

Another assay concerns Enterococcus faecium. Description: MIC by agar dilution, Enterococcus faecium. Particulars: agar with 5% defibrinated horse blood, 10^4 CFU/spot, 37° C., 5% carbon dioxide, 48 hours. The method, then: as §1, §2
Assay [2] concerns Staphylococcus aureus MSQS (methicillin sensitive and quinolone sensitive). The assay is described as follows: MIC by agar dilution, Staphylococcus aureus MSQS. As to conditions: 10^4 CFU/spot, 37° C., 24 hours. How it is done: as §1, §3
The test system of the next assay is Moraxella catarrhalis. Description: MIC in Mueller-Hinton broth, Moraxella catarrhalis. Particulars: Mueller-Hinton broth with hemin and NAD, aerobic, 24 hours, 37° C. The method, then: as §1, §2
In assay [3] the test system is Linezolid Reistant Streptococcus pneumoniae. Description: MIC by agar dilution, linezolid resistant Streptococcus pneumoniae. Particulars: agar with 5% defibrinated horse blood, 10^4 CFU/spot, 37° C., 5% carbon dioxide, 48 hours. The method, then:
as §1, §2

Values after ≈ are worked out from the molar mass of the structure shown. Where only a bound is given, the exact number is not on record here.

For `Cn1nnnc1-c1ccc(-c2ccc(N3CC(CNC(=O)C4CC4)OC3=O)cc2F)cn1` (stereo in doubt) [Example 2, N-[[(5R)-3-[3-Fluoro-4-[6-(1-methyl-1H-1,2,3,4-tetrazol-5-yl)-3-Pyridinyl]phenyl]oxazolidin-2-on-5-yl]methyl]cycloproanecarboxamide], the MIC is over 64 mg/L against Haemophilus influenzae; 0.5 mg/L (≈ 1.14 µM) against Streptococcus pneumoniae; 2 mg/L (≈ 4.57 µM) in assay [1]; 1 mg/L (≈ 2.29 µM) against Enterococcus faecium; 2 mg/L (≈ 4.57 µM) in assay [2]; 0.5 mg/L (≈ 1.14 µM) in the assay with Moraxella catarrhalis. Also, the MIC in assay [3] was 4 mg/L (≈ 9.14 µM).

Values taken from patent US20060052399A1, “Oxazolidinone derivatives as antibacterial agents” (AstraZeneca AB, priority 2002, published 2006).
